In patent publication US9365541B2, “Compounds for use in the treatment of parasitic diseases” (IRBM—SCIENCE PARK S.P.A., priority 2012, dated 2016):

Experiments:
[1] = system: histone 4 acetylated lysine 8 (H4K8Ac); experiment: Histone hyperacetylation assay (Western blot H4K8Ac) in P. falciparum 3D7 infected erythrocytes; type: cell-based; details: Plasmodium falciparum, Erythrocyte, 20 nM to 10 uM, 14-16 hours, read-out: estimated EC50 in the hyperacetylation assay
Description: FIG. 1. Hyperacetylation of P. falciparum histones. Plasmodium falciparum 3D7 infected erythrocytes (5-7% parasitemia) were cultured for 14-16 hours in vitro with increasing concentrations (6 nM to 3 uM) of (A): compound (S)-N-(7-(methylamino)-1-(5-(naphthalen-2-yl)-1H-imidazol-2-yl)-7-oxoheptyl)quinuclidine-4-carboxamide (Table 2, entry 126) or with vehicle (0.01% DMSO); increasing concentrations (20 nM to 10 uM) of (B): compound (S)-N-(1-(5-(4-(1H-pyrazol-5-yl)phenyl)-1H-imidazol-2-yl)-7-(methylamino)-7-oxoheptyl)thiazole-5-carboxamide (Table 2, entry 221; Example 4, D9). Beta-actin was used as loading control (see materials and methods). H4K8Ac: antibody directed against acetylated lysine 8 of histone 4. […]
(§1) The effect of test compounds on histone acetylation status was determined by incubating Plasmodium falciparum 3D7 infected erythrocytes or HeLa cells with different concentrations of drugs or vehicle (0.01% DMSO) alone. […] Supernatants were analyzed by 12% SDS-PAGE and transferred onto PVDF (Immun-Blot PVDF Membrane for Protein Blotting, BIORAD, Cat: No 162-0177) membranes. […]

[2] = system: histone 4 acetylated lysine 8 (H4K8Ac); experiment: Histone hyperacetylation assay (Western blot H4K8Ac) in HeLa cells; type: cell-based, human; details: data not shown
Description: FIG. 2. Hyperacetylation of HeLa's histones. HeLa cells were incubated in vitro for 14-16 hours with increasing concentrations (49 nM to 25 uM) of compound (S)-N-(7-(methylamino)-1-(5-(naphthalen-2-yl)-1H-imidazol-2-yl)-7-oxoheptyl)quinuclidine-4-carboxamide (Table 2, entry 126) or were treated with vehicle (0.01% DMSO). Beta-actin was used as loading control (see materials and methods). H4K8Ac: antibody directed against acetylated lysine 8 of histone 4.
After result normalization using positive and negative controls, compound potency is determined by fitting the following equation: % inh=Ymin+(Ymax−Ymin)/(1+(X/EC50)^slope)) Where: • Ymin=minimum percentage effect • Ymax=maximum percentage effect • EC50=the concentration of the compound at which 50% effect is reached • Slope=the slope of the curve calculated at the EC50 Histone Hyperacetylation and Immunodetection of Altered Histone Modifications Assay
as §1, with “alone. Infected erythrocytes were collected at 14-16 hours post treatment and lysed in saponin (0.15%).” for “alone.”

CNC(=O)CCCCC[C@H](NC(=O)c1cncs1)c1ncc(-c2ccc(-c3ccn[nH]3)cc2)[nH]1 [D9, (S)-N-(1-(5-(4-(1H-pyrazol-5-yl)phenyl)-1H-imidazol-2-yl)-7-(methylamino)-7-oxoheptyl)thiazole-5-carboxamide]
EC50 [1]: 350 nM
concentration up to which no change in histone acetylation was observed in HeLa cells [2]: > 10 µM
